# Reference: patent US7378411B2, “Substituted thienopyrimidinones as a mitotic kinesin inhibitor” (Merck & Co., Inc., priority 2001, dated 2008)
# Target: T1, human KSP motor domain (Homo sapiens, UniProt P52732)
# T1 construct: were used to amplify the motor domain and the neck linker region; made in house; host or cells: E. coli BL21 (DE3), pRSETa
# T1 sequence (P52732 18-359 limits assumed): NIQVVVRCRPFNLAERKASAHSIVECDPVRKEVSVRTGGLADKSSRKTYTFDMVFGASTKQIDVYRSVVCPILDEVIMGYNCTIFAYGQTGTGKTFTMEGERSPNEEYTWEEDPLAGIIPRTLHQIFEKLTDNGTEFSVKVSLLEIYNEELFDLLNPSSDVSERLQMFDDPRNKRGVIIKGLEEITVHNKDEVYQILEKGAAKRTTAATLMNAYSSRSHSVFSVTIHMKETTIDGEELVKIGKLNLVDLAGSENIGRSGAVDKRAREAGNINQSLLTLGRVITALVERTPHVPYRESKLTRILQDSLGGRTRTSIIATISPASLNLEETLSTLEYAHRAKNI
# Assay: Kinesin ATPase In Vitro Assay
# Assay type: biochemical
# Conditions: KSP(367H) motor domain with microtubules, 1 mM ATP, 23° C.; free phosphate by quinaldine red/ammonium molybdate
# Description: I. Kinesin ATPase In Vitro Assay
# Cloning and Expression of Human Poly-histidine Tagged KSP Motor Domain (KSP(367H))
# Plasmids for the expression of the human KSP motor domain construct were cloned by PCR using a pBluescript full length human KSP construct (Blangy et al., Cell, vol. 83, pp 1159-1169, 1995) as a template. The N-terminal primer 5′-[…] (SEQ.ID.NO.:) and the C-terminal primer 5′-[…] […] (SEQ.ID.NO.:) were used to amplify the motor domain and the neck linker region. The PCR products were digested with AseI and XhoI, ligated into the NdeIl/XhoI digestion product of pRSETa (Invitrogen) and transformed into E. coli BL21 (DE3).
# Cells were grown at 37° C. to an OD600 of 0.5. After cooling the culture to room temperature expression of KSP was induced with 100 μM IPTG and incubation was continued overnight. Cells were pelleted by centrifugation and washed once with ice-cold PBS. Pellets were flash-frozen and stored −80° C.
# Cell pellets were thawed on ice and resuspended in lysis buffer (50 mM K-HEPES, pH 8.0, 250 mM KCl, 0.1% Tween, 10 mM imidazole, 0.5 mM Mg-ATP, 1 mM PMSF, 2 mM benzimidine, 1× complete protease inhibitor cocktail (Roche)). Cell suspensions were incubated with 1 mg/ml lysozyme and 5 mM β-mercaptoethanol on ice for 10 minutes, followed by sonication (3×30 sec). All subsequent procedures were performed at 4° C. Lysates were centrifuged at 40,000×g for 40 minutes. Supernatants were diluted and loaded onto an SP Sepharose column (Pharmacia, 5 ml cartridge) in buffer A (50 mM K-HEPES, pH 6.8, 1 mM MgCl2, 1 mM EGTA, 10 μM Mg-ATP, 1 mM DTT) and eluted with a 0 to 750 mM KCl gradient in buffer A. Fractions containing KSP were pooled and incubated with Ni-NTA resin (Qiagen) for one hour. The resin was washed three times with buffer B (Lysis buffer minus PMSF and protease inhibitor cocktail), followed by three 15-minute incubations and washes with buffer B. Finally, the resin was incubated and washed for 15 minutes three times with buffer C (same as buffer B except for pH 6.0) and poured into a column. KSP was eluted with elution buffer (identical to buffer B except for 150 mM KCl and 250 mM imidazole). KSP-containing fractions were pooled, made 10% in sucrose, and stored at −80° C.
# Microtubules are prepared from tubulin isolated from bovine brain. Purified tubulin (>97% MAP-free) at 1 mg/ml is polymerized at 37° C. in the presence of 10 μM paclitaxel, 1 mM DTT, 1 mM GTP in BRB80 buffer (80 mM K-PIPES, 1 mM EGTA, 1 mM MgCl2 at pH 6.8). The resulting microtubules are separated from non-polymerized tubulin by ultracentrifugation and removal of the supernatant. The pellet, containing the microtubules, is gently resuspended in 10 μM paclitaxel, 1 mM DTT, 50 μg/ml ampicillin, and 5 μg/ml chloramphenicol in BRB80.
# The kinesin motor domain is incubated with microtubules, 1 mM ATP (1:1 MgCl2: Na-ATP), and compound at 23° C. in buffer containing 80 mM K-HEPES (pH 7.0), 1 mM EGTA, 1 mM DTT, 1 mM MgCl2, and 50 mM KCl. […] Free phosphate from the ATP hydrolysis reaction is measured via a quinaldine red/ammonium molybdate assay by adding 150 μl of quench C buffer containing a 2:1 ratio of quench A:quench B. Quench A contains 0.1 mg/ml quinaldine red and 0.14% polyvinyl alcohol; quench B contains 12.3 mM ammonium molybdate tetrahydrate in 1.15 M sulfuric acid. The reaction is incubated for 10 minutes at 23° C., and the absorbance of the phospho-molybdate complex is measured at 540 nm.
row,IC50,Compound
1,≤ 50 µM,"CCC(c1nc2ccsc2c(=O)n1Cc1ccccc1)N(CCN(C)C)C(=O)c1ccc(Br)cc1 (centres unmarked) [Compound 1-8, N-[1-(3-Benzyl-4-oxo-3,4-dihydrothieno[3,2-d]pyrimidin-2-yl)propyl]-4-bromo-N-[2-(dimethylamino)ethyl]benzamide]"
2,≤ 50 µM,"CCC(c1nc2sc(Br)c(Br)c2c(=O)n1Cc1ccccc1)N(CCN(C)C)C(=O)c1ccc(Br)cc1 (centres unmarked) [Compound 2-9, N-[1-(3-benzyl-5,6-dibromo-4-oxo-3,4-dihydrothieno[2,3-d]pyrimidin-2-yl)propyl]-4-bromo-N-[2-(dimethylamino)ethyl]benzamide]"
3,≤ 50 µM,"CCC(c1nc2sc(Br)cc2c(=O)n1Cc1ccccc1)N(CCN(C)C)C(=O)c1ccc(Br)cc1 (centres unmarked) [Compound 2-10, N-[1-(3-benzyl-6-bromo-4-oxo-3,4-dihydrothieno[2,3-d]pyrimidin-2-yl)propyl]-4-bromo-N-[2-(dimethylamino)ethyl]benzamide]"
4,≤ 50 µM,"CCC(c1nc2sccc2c(=O)n1Cc1ccccc1)N(CCN(C)C)C(=O)c1ccc(Br)cc1 (centres unmarked) [Compound 3-2, N-[1-(3-benzyl-4-oxo-3,4-dihydrothieno[2,3-d]pyrimidin-2-yl)propyl]-4-bromo-N-[2-(dimethylamino)ethyl]benzamide]"
5,≤ 50 µM,"CCC(c1nc2sccc2c(=O)n1Cc1ccccc1)N(CCN(C)C)Cc1ccc(Br)cc1 (centres unmarked) [Compound 4-1, 3-benzyl-2-(1-{(4-bromobenzyl)[2-(dimethylamino)ethyl]amino}propyl)thieno[2,3-d]pyrimidin-4(3H)-one]"
